Source: patent US5883133A, “Substituted cinnamic acid guanidides, a process for their preparation, their use as medicaments or diagnostic agents and medicaments comprising them” (priority 1995, dated 1999)
Where a name gives a salt, the structure may show the parent alone.

Key:
[1] = target: T1, Na^+ /H^+ exchanger of rabbit erythrocytes (Oryctolagus cuniculus, UniProt P23791); assay: Inhibition of the Na+/H+ exchanger of rabbit erythrocytes (amiloride-sensitive sodium influx, flame photometry); format: cell-based, rabbit (White New Zealand); details: pH 7.4, 37° C., hyperosmolar salt/sucrose medium
T1 construct: exchanger of rabbit erythrocytes; endogenous in cells; host or cells: erythrocytes from ear-artery blood of White New Zealand rabbits (Ivanovas) fed 2% cholesterol for six weeks
Text: Inhibitors of the Na^+ /H^+ exchanger of rabbit erythrocytes:
White New Zealand rabbits (Ivanovas) were given a standard diet with 2% of cholesterol for six weeks in order to activate the Na^+ /H^+ exchange so that the Na^+ influx into the erythrocytes via Na^+ /H^+ exchange can be determined by flame photometry. The blood was taken from the ear arteries and rendered uncoagulable by 25 IU/ml of heparin potassium. A portion of each sample was used for duplication determination of the hematocrit by centrifugation. Aliquots of in each case 100 μl were used for measurement of the initial Na^+ content of the erythrocytes.
To determine the amiloride-sensitive sodium influx, 100 μl of each blood sample were each incubated at pH 7.4 and 37° C. in 5 ml of a hyperosmolar salt/sucrose medium (mmol/l: 140 NaCl, 3 KCl, 150 sucrose, 0.1 ouabain, 20 tris-hydroxymethyl-aminomethane). The erythrocytes were then washed three times with ice-cold MgCl2 /ouabain solution (mmol/l: 112 MgCl2, 0.1 ouabain) and hemolyzed in 2.0 ml of distilled water. The intracellular sodium content was determined by flame photometry.
The net Na^+ influx was calculated from the difference between the initial sodium levels and the sodium content of the erythrocytes after incubation. […]

rat hearts = details: isolated rat hearts, cited from earlier work

T1 sequence (P23791 whole entry): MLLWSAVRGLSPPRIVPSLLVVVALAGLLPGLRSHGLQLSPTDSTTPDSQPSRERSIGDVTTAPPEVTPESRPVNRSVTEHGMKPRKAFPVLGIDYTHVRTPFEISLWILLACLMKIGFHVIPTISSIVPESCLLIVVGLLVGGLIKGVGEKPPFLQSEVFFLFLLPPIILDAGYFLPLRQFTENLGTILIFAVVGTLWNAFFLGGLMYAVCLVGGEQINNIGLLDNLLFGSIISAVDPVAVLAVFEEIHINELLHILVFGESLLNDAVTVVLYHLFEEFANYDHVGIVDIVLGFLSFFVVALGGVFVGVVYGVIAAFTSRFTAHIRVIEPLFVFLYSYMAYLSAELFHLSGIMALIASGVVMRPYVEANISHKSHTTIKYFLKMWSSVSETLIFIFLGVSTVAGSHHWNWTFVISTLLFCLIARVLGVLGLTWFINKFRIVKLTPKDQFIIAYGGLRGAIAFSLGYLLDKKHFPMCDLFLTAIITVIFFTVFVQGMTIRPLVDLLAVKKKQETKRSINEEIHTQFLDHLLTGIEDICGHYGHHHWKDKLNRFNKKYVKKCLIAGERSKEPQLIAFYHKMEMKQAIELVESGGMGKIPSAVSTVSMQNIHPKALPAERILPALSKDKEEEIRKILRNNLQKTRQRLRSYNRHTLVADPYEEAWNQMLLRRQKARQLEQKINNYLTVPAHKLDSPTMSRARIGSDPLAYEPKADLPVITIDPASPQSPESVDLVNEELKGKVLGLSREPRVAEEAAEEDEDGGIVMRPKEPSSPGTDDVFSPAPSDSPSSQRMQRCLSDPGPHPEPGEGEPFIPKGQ

| SMILES | IC50 [1] | other results |
| --- | --- | --- |
| C/C(=C\c1ccc(N(C)C)cc1)C(=O)N=C(N)N [Example 1, E-3-(4-Dimethylaminophenyl)-2-methyl-propenoic acid guanidide hydrochloride] | < 1000 nM | – |
| C/C(=C\c1ccc(OCCCN(C)C)cc1)C(=O)N=C(N)N [Example 2, E-3-[4-(3-Dimethylaminopropoxy)phenyl)-2-methyl-propenoic acid guanidide dihydrochloride] | < 1000 nM | – |
| NC(N)=NC(=O)c1nc(Cl)c(N)nc1N [amiloride] | – | suppression of artificially induced ventricular fibrillation (rat hearts; Eur. Heart J. 9 (suppl. 1): 167 (1988)): suppressed completely |
| CCN(c1nc(N)c(C(=O)N=C(N)N)nc1Cl)C(C)C [ethylisopropylanmiloride, Ethylisopropylamiloride] | – | potency in ventricular fibrillation model relative to amiloride (rat hearts; compared with amiloride): even more potent than amiloride |
